Test results taken from US20240216347A1, “BEZUCLASTINIB FORMULATIONS” (Cogent Biosciences, Inc., priority 2022, published 2024).
≈ marks a conversion by molar mass, not a printed value.

Legend:
[1] = Pka of Bezuclastinib (Table 1); assay type: physicochemical; conditions: Weak Base
Text: (§1) Bezuclastinib has a high melting point and is insoluble in aqueous and most organic solvents. No suitable salt or co-crystal was found.

[2] = LogD of Bezuclastinib (Table 1); assay type: physicochemical
Text: as §1

[3] = Aqueous solubility of Bezuclastinib; assay type: physicochemical; conditions: aqueous buffer
Protocol: Compound (I) was first disclosed in U.S. Pat. No. 9,676,748 B2 and U.S. Pat. No. 10,301,280 B2. In the almost 10 years since, Compound (I) has proven to be difficult to prepare in a tablet form suitable for commercial development. In particular, Compound (I) has a very high melting point (>365° C.) and is practically insoluble in aqueous conditions (0.32 ug/mL at pH 7.0), and most organic solvents. In addition, no suitable salt or co-crystal has been found for of Compound (I), which itself readily crystalizes when forming tablets. Finally, existing tablet forms of Compound (I) allowed a relatively small proportion of API to be loaded into the tablet form, necessitating repeated dosing of many tablets, potentially jeopardizing patient compliance.
as §1

[4] = Solubility in biorelevant media; assay type: physicochemical; conditions: fassgf or other biorelevant, thermodynamic from solid; all biorelevant media (0.01N HCl, FaSSIF, SIF, FaSSGF), 37° C.; read-out: free drug concentration (solubility)
Protocol: Biorelevant media included 0.01N hydrochloric acid, Fast State Simulated Intestinal Fluid (FaSSIF) with and without bile salts, Simulated Intestinal Fluid (SIF) with various concentrations of bile salts (0, 0.5% and 1%) and Fasted State Simulated Gastric Fluid (FaSSGF). A saturated suspension was prepared in each media and the samples were stirred overnight using a magnetic stirrer. The free drug concentration was determined by subjecting the samples to 7 minutes in an ultracentrifuge at 470,000× gravity. A 100 μL aliquot was withdrawn and diluted in 5× in DMSO and Methanol and tested by the HPLC method described in Table 2. Six (6) replicates were performed in each media. In all cases, bezuclastinib was practically insoluble (free drug concentration ≤1.2 μg/mL).

[5] = Solubility in organic solvents; assay type: physicochemical; conditions: organic solvent or mixture, thermodynamic from solid, 21° C., read-out: free drug concentration (solubility)
Protocol: (Table 3). A saturated suspension was prepared in each solvent and the samples were stirred overnight using a magnetic stirrer. The free drug concentration was determined by subjecting the samples to 7 minutes in an ultracentrifuge at 470,000× gravity. A 100 μL aliquot was withdrawn and diluted in 5× in DMSO and Methanol and tested by the HPLC method. Three (3) replicates were performed in each solvent. Bezuclastinib was poorly soluble (free drug concentration <5.0 mg/mL), other than DMSO (free drug concentration <20 mg/mL).

[6] = Influence of pH on solubility; assay type: physicochemical; conditions: Simulated Intestinal Fluid with 0.5% bile salts, fassgf or other biorelevant, thermodynamic from solid; SIF with 0.5% bile salts, 37° C., pH 4.0, 5.5 and 6.0; read-out: free drug concentration (solubility)
Protocol: A saturated bezuclastinib suspension was prepared in each media and the samples were stirred overnight using a magnetic stirrer. The total drug concentration was determined by subjecting the samples to 3 minutes in a microcentrifuge at 19,500× gravity. The free drug concentration was determined by subjecting the samples to 7 minutes in an ultracentrifuge at 470,000× gravity. A 100 μL aliquot was withdrawn and diluted in 5× in DMSO and Methanol and tested by the HPLC method. Six (6) replicates were performed in each media. In all conditions, bezuclastinib was poorly soluble (free drug concentration <20 μg/mL).

[7] = Non-sink dissolution test in simulated intestinal fluid, no gastric transfer; assay type: physicochemical; conditions: SIF 0.5% bile salt, pH 6.5, 37° C., 1 mg API per mL
Protocol: Non-sink dissolution testing was used to determine the kinetic solubility as well as the extent and duration of supersaturation of amorphous dispersions. Spray dried samples were examined under non sink dissolution testing conditions in FIGS. 2-5. Non sink testing was performed with and without a gastric transfer at various bile salt concentrations in biorelevant media including simulated intestinal fluid at pH 6.5 and FaSSIF at pH 6.5. Total drug and free drug concentration were determined as described in Example 2.
Samples were loaded at a concentration of 1 mg API per mL of media. The SDD's tested were 10% and 20% drug loading HPMCAS-L SDD, 20% HPMCAS-H and 20% HPMCAS-L with 5 mg/mL HPMCAS-H added.

[8] = human, in vivo, po
Text: (§2) This Example summarizes a single-center, open-label, 2-period, randomized, crossover study of Formulations A and B of bezuclastinib at single ascending dose levels in healthy adult subjects to assess pharmacokinetics and relative bioavailability. Subjects were randomized to receive either a single dose of Formulation A fasted, or a single dose of Formulation B fasted. After a washout period of 21 days, subjects were then crossed over to receive the other formulation. […] Blood draws were taken pre-dose, and 0.5, 1, 2, 3, 4, 6, 8, 12, 16, 24, 48, 72, 96, 120, 144, 168, 192, and 336 h post-dose.

clinical = conditions: human, in vivo, po
Text: as §2

[9] = system: cells with activating c-kit mutations in the catalytic region; conditions: Ma et al., 2002; cited from earlier work

Row | pKa [1] | logD [2] | solubility ([3]; aqueous conditions, pH 7.0, read-out: solubility in aqueous conditions) [µg/mL] | solubility ([3]; aqueous medium, pH = 7.0, read-out: Aqueous solubility) [µg/mL] | solubility [4] [µg/mL] | solubility ([5]; DMSO) [µg/mL] | solubility ([5]; organic solvents of Table 3 other than DMSO) [µg/mL] | solubility [6] [µg/mL] | Microcentrifuge Assay @ 5 min (total drug) ([7]; 5 min) [µg/mL] | Ultracentrifuge Assay @ 5 min (free drug) ([7]; 5 min) [µg/mL] | Microcentrifuge Assay @ 60 min (total drug) ([7]; 60 min) [µg/mL] | Ultracentrifuge Assay @ 60 min (free drug) ([7]; 60 min) [µg/mL] | Microcentrifuge Assay @ 6 hrs (total drug) ([7]; 6 hrs) [µg/mL] | Ultracentrifuge Assay @ 6 hrs (free drug) ([7]; 6 hrs) [µg/mL] | median time to maximum concentration [8] [h] | half-life (clinical) [h] | Structure (SMILES) | inhibition of cells with c-kit mutations in the catalytic region [9]
1 | 2.86 | 3.46 | 0.32 (≈ 0.966 µM) | 0.31 (≈ 0.935 µM) | ≤ 1.2 | < 20000 | < 5000 | < 20 | 2.0 | 1.5 | 3.4 | 1.6 | 2.0 | 1.7 | 12 to 16 | 48.6 to 71.4 | Cc1n[nH]c(C(=O)Nc2cnc3[nH]c(-c4ccccc4)cc3c2)c1C [Bezuclastinib, 3,4-dimethyl-N-(2-phenyl-1H-pyrrolo[2,3-b]pyridin-5-yl)-1H-pyrazole-5-carboxamide] | –
2 | – | – | – | – | – | – | – | – | – | – | – | – | – | – | – | – | Cc1ccc(NC(=O)c2ccc(CN3CCN(C)CC3)cc2)cc1Nc1nccc(-c2cccnc2)n1 [STI571] | did not inhibit the cells
